These results are taken from PubChem BioAssay (NCI).

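All cell lines were grown in 96-well plates and treated with compound for 48 hours. GI50 is the concentration that inhibits growth by half. TGI: concentration producing complete growth inhibition.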 A value given as a limit tells only on which side of the number the result lay.

Among the test systems are CCRF-CEM leukemia; EKVX NSCLC; IGROV1 ovarian; M14 melanoma; MOLT-4 leukemia; OVCAR-5 ovarian; PC-3 prostate; SF-539 CNS; SK-MEL-28 melanoma; UACC-62 melanoma.
Holding throughout (assay): NCI tumour cell line growth inhibition, 48 h

With `COC(=O)N/N=C(/c1nc2ccc([N+](=O)[O-])cc2[nH]c1=O)C(O)c1ccc(OC)c(OC)c1` (stereo not given), the TGI in the assay on CCRF-CEM leukemia, in the assay on EKVX NSCLC, in the assay on IGROV1 ovarian, with M14 melanoma, in the assay with MOLT-4 leukemia and in the assay with OVCAR-5 ovarian was more than 100 µM each time. In addition, the TGI with PC-3 prostate, in the assay with SF-539 CNS, in the assay with SK-MEL-28 melanoma and in the assay with UACC-62 melanoma was more than 100 µM in each case.

With `Cc1cc2c(cc1Cl)N1C(=O)NS(=O)(=O)N=C1NS2(=O)=O`, the GI50 in the assay on CCRF-CEM leukemia, with EKVX NSCLC, in the assay with IGROV1 ovarian, in the assay with M14 melanoma, in the assay with MOLT-4 leukemia and in the assay on OVCAR-5 ovarian was more than 100 µM each time. Also, the GI50 in the assay on PC-3 prostate, with SF-539 CNS, with SK-MEL-28 melanoma and in the assay with UACC-62 melanoma was more than 100 µM in each case. Also, the TGI with CCRF-CEM leukemia, in the assay on EKVX NSCLC, in the assay with IGROV1 ovarian, in the assay on M14 melanoma, in the assay with MOLT-4 leukemia and in the assay with OVCAR-5 ovarian was more than 100 µM in each case. Moreover, the TGI in the assay with PC-3 prostate, in the assay with SF-539 CNS, with SK-MEL-28 melanoma and in the assay on UACC-62 melanoma was more than 100 µM each time.

For the compound `COc1cc(NC(C)CCCN2C(=O)c3ccccc3C2=O)c2ncccc2c1OC` (stereo not given), the GI50 is 49.2 µM with CCRF-CEM leukemia; 29.7 µM with EKVX NSCLC; 18.6 µM with IGROV1 ovarian; 30.5 µM with M14 melanoma; 38.3 µM in the assay with MOLT-4 leukemia; 82.6 µM with OVCAR-5 ovarian. For the same compound, the GI50 in the assay on PC-3 prostate is 24.9 µM; with SF-539 CNS, 78 µM; in the assay on SK-MEL-28 melanoma it was 37.8 µM; in the assay with UACC-62 melanoma it was 35.9 µM. For the same compound, the TGI with CCRF-CEM leukemia, in the assay with EKVX NSCLC, in the assay with IGROV1 ovarian, with M14 melanoma, in the assay with MOLT-4 leukemia and in the assay on OVCAR-5 ovarian was more than 100 µM throughout. The TGI is 71.1 µM with PC-3 prostate, more than 100 µM in the assay with SF-539 CNS, more than 100 µM in the assay on SK-MEL-28 melanoma and more than 100 µM with UACC-62 melanoma.

Turning to `N=C1C(c2nc3ccccc3s2)=C(O)CN1c1cc(Cl)cc(Cl)c1`, the GI50 in the assay with CCRF-CEM leukemia was more than 100 µM; with EKVX NSCLC it was more than 100 µM; with MOLT-4 leukemia it was more than 100 µM; with OVCAR-5 ovarian, more than 100 µM; in the assay on PC-3 prostate, more than 100 µM; in the assay with SF-539 CNS, 34.3 µM. For the same compound, the GI50 with SK-MEL-28 melanoma and in the assay on UACC-62 melanoma was more than 100 µM each time. In addition, the TGI in the assay with CCRF-CEM leukemia, in the assay with EKVX NSCLC, in the assay on MOLT-4 leukemia, in the assay on OVCAR-5 ovarian, with PC-3 prostate and in the assay with SF-539 CNS was more than 100 µM throughout. Further, the TGI in the assay with SK-MEL-28 melanoma and with UACC-62 melanoma was more than 100 µM each time.

Take `COc1cc(Cn2c(SCC(=O)Nc3ccc(Cl)cc3)nc3ccccc3c2=O)cc(OC)c1OC`: the GI50 with CCRF-CEM leukemia is more than 100 µM; with IGROV1 ovarian, 19 µM; in the assay with M14 melanoma, 16.5 µM; in the assay on MOLT-4 leukemia it was more than 100 µM; in the assay with OVCAR-5 ovarian, 14.8 µM; with PC-3 prostate, 16.7 µM. Moreover, the results for the GI50 with SF-539 CNS, in the assay on SK-MEL-28 melanoma and with UACC-62 melanoma were 2.29 µM, 11.4 µM and 6.29 µM, respectively. Moreover, the TGI in the assay with CCRF-CEM leukemia was more than 100 µM; with IGROV1 ovarian, 55.8 µM; in the assay with M14 melanoma, 86.4 µM; with MOLT-4 leukemia, more than 100 µM; in the assay with OVCAR-5 ovarian, more than 100 µM; in the assay on PC-3 prostate it was more than 100 µM. Also, the TGI in the assay on SF-539 CNS came to 6.5 µM; with SK-MEL-28 melanoma it was 50.9 µM; in the assay on UACC-62 melanoma, 37.1 µM.

For `COc1ccc(/C=C2/CN(CCC#N)C/C(=C\c3ccc(OC)cc3)C2=O)cc1`, the GI50 in the assay on CCRF-CEM leukemia is 2.46 µM; in the assay with IGROV1 ovarian it was 2.77 µM; in the assay with M14 melanoma, 3.01 µM; in the assay with MOLT-4 leukemia, 3.69 µM; with OVCAR-5 ovarian, 3.33 µM; in the assay with PC-3 prostate, 2.67 µM. Moreover, the GI50 was 2.12 µM with SF-539 CNS, 1.99 µM in the assay on SK-MEL-28 melanoma and 1.66 µM with UACC-62 melanoma. Besides, the TGI was more than 100 µM in the assay with CCRF-CEM leukemia; 8.26 µM in the assay with IGROV1 ovarian; 9.6 µM in the assay on M14 melanoma; more than 100 µM in the assay on MOLT-4 leukemia; 24.9 µM with OVCAR-5 ovarian; more than 100 µM in the assay on PC-3 prostate. The TGI in the assay on SF-539 CNS came to 5.42 µM; in the assay on SK-MEL-28 melanoma, 4.3 µM; in the assay on UACC-62 melanoma it was 3.81 µM.

As for `CC1COCCN1CC#CCOC(=O)c1cc2ccccc2oc1=O` (stereo not given), the GI50 with CCRF-CEM leukemia, with EKVX NSCLC, in the assay with IGROV1 ovarian, in the assay on MOLT-4 leukemia, with OVCAR-5 ovarian and with PC-3 prostate was more than 100 µM throughout. Also, the GI50 in the assay with SF-539 CNS, in the assay with SK-MEL-28 melanoma and with UACC-62 melanoma was more than 100 µM each time. Also, the TGI in the assay on CCRF-CEM leukemia, in the assay with EKVX NSCLC, in the assay on IGROV1 ovarian, with MOLT-4 leukemia, with OVCAR-5 ovarian and with PC-3 prostate was more than 100 µM each time. Further, the TGI in the assay on SF-539 CNS, with SK-MEL-28 melanoma and with UACC-62 melanoma was more than 100 µM each time.

Turning to `N=C1/C(=C2\Nc3ccccc3S2)CC(=O)N1c1ccc(SC(F)F)cc1`, the GI50 was 0.839 µM with CCRF-CEM leukemia; 24.5 µM in the assay with EKVX NSCLC; 5.07 µM in the assay on IGROV1 ovarian; 33.2 µM in the assay on M14 melanoma; 1.42 µM with MOLT-4 leukemia; 8.88 µM in the assay with OVCAR-5 ovarian. For the same compound, the GI50 in the assay with PC-3 prostate was 3.55 µM; in the assay with SF-539 CNS, 4.09 µM; with SK-MEL-28 melanoma, 4.38 µM; in the assay on UACC-62 melanoma, 24 µM. In addition, the TGI in the assay on CCRF-CEM leukemia was more than 100 µM; in the assay on EKVX NSCLC, more than 100 µM; in the assay with IGROV1 ovarian, more than 100 µM; with M14 melanoma, more than 100 µM; in the assay on MOLT-4 leukemia, more than 100 µM; in the assay on OVCAR-5 ovarian it was 79.4 µM. Also, the TGI was 93.5 µM in the assay on PC-3 prostate, 28 µM with SF-539 CNS, more than 100 µM in the assay on SK-MEL-28 melanoma and more than 100 µM with UACC-62 melanoma.
